Read-outs that look alike come from different tables or passages of the source.
Columns and labels:
[1] = test system: HIV strain HTLV-IIIB (WT); experiment: p24 production in PBMNC infected with HTLV-IIIB; format: cell-based, HIV-1
Protocol: (§1) Percent inhibition of viral replication was calculated by comparing the p24 values from the test substance treated infected cells with p24 values from untreated infected cells (i.e., virus controls). In parallel, the effects of various treatments on cell viability were also examined, as described in Enrice et. al., supra. In brief, non-infected PBNWC were treated with each compound for 7 days under identical experimental conditions. A Microculture Tetrazolium Assay (NTFA), using 2,3-bis(2-methoxy-4 nitro-5-sulfophenyl)-5-[(phenylamino)-carbonyl]-2H-tetrazolium hydroxide (XTT), was performed to quantitate cellular proliferation.

[2] = test system: HIV strain RT-MDR (74V, 41L, 106A, 215Y); experiment: microbe, parasite or virus in culture; format: cell-based, HIV-1; settings: for times less potent than DDE240: multiple drug resistant mutant strain
Protocol: as §1

[3] = target: T1, purified recombinant HIV RT (Human immunodeficiency virus type 1 group M subtype B, UniProt P04585); experiment: Purified RT assay, cell-free Quan-T-RT system (scintillation proximity); format: biochemical; settings: for IC50: recombinant HIV RT, cell-free
T1 construct: purified recombinant HIV RT
Protocol: The primer DNA is a 16-mer oligo(T) which has been annealed to a poly(A) template. The primer/template is bound to a strepavidin-coated SPA bead.
3H-TTP is incorporated into the primer by reverse transcription. […] The compound being tested was added to the reaction mixture at 0.001 μM–100 μM concentrations. […] The reaction was stopped by addition of 0.2 ml of 120 mM EDTA. The samples were counted in an open window using a Beckman LS 7600 instrument and IC, values were calculated by comparing the measurements to untreated samples.

HIV strain A17 (Y181C) = experiment: p24 production in PBMNC infected with A17; format: cell-based, HIV-1; settings: for IC50: Human immunodeficiency virus 1, read-out: IC50 p24
Protocol: (§2) Normal human peripheral blood mononuclear cells (PBMNC) from HIV-negative donors were cultured 72 hours in RPMI 1640 supplemented with 20% (v/v) heat-inactivated fetal bovine serum (FBS), 3% interleukin-2, 2 mM L-glutairtine, 25 mM HEPES, 2 μL, NAHCO, […] gentamicin, and 4 μg/mL phytohemagglutinin prior to exposure to HIV-I at a multiplicity of infection (MOI) of 0.1 during a one-hour adsorption period at 37'C in a humidified 5% C02 atmosphere. Subsequently, cells were cultured in 96-well microliter plates (100 μl/well; 2×10^6 cells/mL, triplicate wells) in the presence of various inhibitor concentrations and aliquots of culture supernatants were removed from the wells on the 7th day after infection for p24 antigen p24 enzyme immunoassays (EIA), as previously described. (see Erice et. al., 1993, Antiimicrob. Ag. Chemotherapy 37:835–838) The applied p24 EIA was the unmodified kinetic assay commercially available from Coulter Corporation/Immunotech, Inc. (Westbrooke, Me.), which utilizes a murine monoclonal antibody to HIV core protein coated onto microwell strips to which the antigen present in the test culture supernatant samples binds. Percent inhibition of viral replication was calculated by comparing the p24 values from the test substance treated infected cells with p24 values from untreated infected cells (i.e., virus controls). In parallel, the effects of various treatments on cell viability were also examined, as described in Enrice et. al., supra. In brief, non-infected PBNWC were treated with each compound for 7 days under identical experimental conditions. A Microculture Tetrazolium Assay (NTFA), using 2,3-bis(2-methoxy-4 nitro-5-sulfophenyl)-5-[(phenylamino)-carbonyl]-2H-tetrazolium hydroxide (XTT), was performed to quantitate cellular proliferation.

[4] = test system: HIV strain A17 variant (Y181C, K103N); experiment: p24 production in PBMNC infected with A17 variant; format: cell-based, HIV-1; settings: Human immunodeficiency virus 1, read-out: IC50 p24
Protocol: as §2

[5] = Human immunodeficiency virus 1, HTLV IIIB WT, PBMNC, read-out: IC50 p24
[6] = Human immunodeficiency virus 1, read-out: IC50 p24, RT-MDR (74V, 41L, 106A, 215Y), PBMNC
[7] = Human immunodeficiency virus 1, IIIB, HIV replication assay
[8] = Human immunodeficiency virus 1, HTLV IIIB, PBMNC, read-out: IC50[p24]

Row | Compound | IC50 [1, 5] | IC50 [2, 6] | IC50 (HIV strain A17 (Y181C)) | IC50 [4] | IC50 ([3]; read-out: RRT (IC50[rRT])) | also measured
1 | S=C(NCCc1ccccc1Cl)Nc1ccc(Br)cn1 [DDE253] | < 1 nM | 4 nM | – | – | – | –
2 | COc1ccc(OC)c(CCNC(=S)Nc2ccc(Br)cn2)c1 [DDE236, N-[2-(2,5-dimethoxyphenylethyl)]-N′-[2-(5-bromopyridyl)]-thiourea] | < 1 nM | 5 nM | 100 nM | 11000 nM | – | times more potent than trovirdine ([3]; purified recombinant HIV-RT): 8 times; IC90 fold better than AZT ([1]; HIV replication assay): 10 fold; IC90 [1, 7]: 9 nM; selectivity index (IC50[MTA]/IC50[p24]) ([1]; calculated): > 10^5; melting point: 133 to 138 °C
3 | CC(C)Nc1cccnc1N1CCN(C(=O)c2cc3cc(NS(C)(=O)=O)ccc3[nH]2)CC1 [Delavirdine, reference compound] | 9 nM | 400 nM | 50000 nM | > 100000 nM | – | –
4 | Fc1ccc(CCNC(=S)Nc2ccc(Br)cn2)cc1 [DDE242] | – | – | – | – | 6060 nM | IC50 ([3]; RRT (IC50[rRT])): 6000 nM; IC50 [1, 8]: 10 nM
5 | S=C(NCCc1ccccn1)Nc1ccc(Br)cn1 [Trovirdine, reference compound] | – | – | – | – | – | IC50 ([1]; Human immunodeficiency virus 1, IIIB, read-out: IC50 p24): 7 nM; times less potent than DDE240 ([1]; zidovudine-sensitive strain HTLV IIIB): 10 times; IC50 ([2]; Human immunodeficiency virus 1, read-out: IC50 p24): 20 nM; times less potent than DDE240 [2]: up to 7 times; times less potent than DDE240 ([2]; listed as Trouviridine): three times less potent
6 | Fc1ccccc1CCNC(=S)Nc1ccc(Br)cn1 [DDE240, N-[2-(2-fluorophenethyl)]-N′-[2-(5-bromopyridyl)]-thiourea] | < 1 nM | 6 nM | 200 nM | 41000 nM | – | IC50 [1, 8]: < 1 nM; fold better activity than delavirdine ([2]; MDR HIV): 100 fold; fold better activity than nevirapine ([2]; MDR HIV): 800 fold; IC50 ([2]; read-out: IC50 p24, RT-MDR (74V, 41L, 106A, 215Y), PBMNC): 5 nM; times better activity than delavirdine (HIV strain A17 (Y181C); Y181C mutant): 200 times; times more potent than nevirapine (HIV strain A17 (Y181C); Y181C mutant): more than 500 times; melting point: 156 to 157 °C
7 | CCOCn1c(Cc2ccccc2)c(C(C)C)c(=O)[nH]c1=O [MKC-442, reference compound] | – | 300 nM | – | – | 800 nM | –
8 | Cc1cn([C@H]2C[C@H](N=[N+]=[N-])[C@@H](CO)O2)c(=O)[nH]c1=O [AZT, reference compound] | – | 150 nM | 6 nM | – | – | IC90 [1, 7]: 100 nM
9 | Cc1ccnc2c1NC(=O)c1cccnc1N2C1CC1 [Nevirapine, reference compound] | 34 nM | 5000 nM | > 100000 nM | > 100000 nM | – | –
10 | Fc1cccc(CCNC(=S)Nc2ccc(Br)cn2)c1 [DDE241] | < 1 nM | 20 nM | – | – | 760 nM | –

From patent US7186736B1, “NNI for treatment of multi-drug resistant HIV” (Parker Hughes Institute, priority 1999, dated 2007)
